Source: US20230293535A1, “ERBB/BTK INHIBITORS” (Dizal (Jiangsu) Pharmaceutical Co., Ltd., priority 2018, published 2023)
Where two headings read alike, the source gives them in different places.

Columns and labels:
WT EGFR = target: T1, WT EGFR (Homo sapiens, UniProt P00533); assay: WT EGFR cellular phosphorylation inhibition in A-431 (hEGF stimulated, MSD); assay type: cell-based; conditions: A431 cells, 4 h compound, then 100 ng/ml hEGF 10 min;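 note: electrochemiluminescence read-out of EGFR Tyr1068 phosphorylation expressed as ratio to total EGFR, cells kept in medium with 1% FBS, compounds tested as a concentration series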
T1 construct: host or cells: A-431
T1 sequence (P00533 25-1210): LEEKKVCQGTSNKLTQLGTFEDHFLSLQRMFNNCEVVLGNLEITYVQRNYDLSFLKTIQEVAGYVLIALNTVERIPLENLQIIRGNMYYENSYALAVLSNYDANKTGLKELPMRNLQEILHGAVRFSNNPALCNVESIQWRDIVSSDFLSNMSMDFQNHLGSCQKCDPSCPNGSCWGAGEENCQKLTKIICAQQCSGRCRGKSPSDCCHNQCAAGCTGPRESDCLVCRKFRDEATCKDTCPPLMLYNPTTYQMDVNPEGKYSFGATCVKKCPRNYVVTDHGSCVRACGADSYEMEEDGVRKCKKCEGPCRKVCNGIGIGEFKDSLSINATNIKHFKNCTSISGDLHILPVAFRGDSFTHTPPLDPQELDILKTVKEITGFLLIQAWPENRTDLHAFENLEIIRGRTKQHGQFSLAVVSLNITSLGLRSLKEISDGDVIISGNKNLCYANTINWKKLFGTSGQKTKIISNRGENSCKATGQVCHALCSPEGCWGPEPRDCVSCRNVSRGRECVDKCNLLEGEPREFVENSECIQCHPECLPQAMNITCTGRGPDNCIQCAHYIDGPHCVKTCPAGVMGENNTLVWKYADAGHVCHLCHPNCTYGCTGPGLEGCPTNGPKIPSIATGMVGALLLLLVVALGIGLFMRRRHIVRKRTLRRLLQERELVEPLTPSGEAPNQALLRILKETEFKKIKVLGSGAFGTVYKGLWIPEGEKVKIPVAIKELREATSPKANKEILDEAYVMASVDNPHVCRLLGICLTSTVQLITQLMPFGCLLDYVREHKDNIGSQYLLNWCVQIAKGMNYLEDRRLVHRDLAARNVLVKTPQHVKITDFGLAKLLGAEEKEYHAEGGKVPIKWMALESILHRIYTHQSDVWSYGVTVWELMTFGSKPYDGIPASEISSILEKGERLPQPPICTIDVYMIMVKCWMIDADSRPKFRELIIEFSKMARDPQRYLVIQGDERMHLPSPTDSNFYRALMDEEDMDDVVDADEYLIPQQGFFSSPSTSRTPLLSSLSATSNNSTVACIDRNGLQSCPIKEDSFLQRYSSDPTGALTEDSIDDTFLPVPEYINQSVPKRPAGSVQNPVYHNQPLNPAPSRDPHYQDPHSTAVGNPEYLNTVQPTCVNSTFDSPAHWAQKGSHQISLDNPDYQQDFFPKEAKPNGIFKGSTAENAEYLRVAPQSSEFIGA
Experimental: One day before the test, WT or mutant cells were seeded in 96 well plates at appropriate concentrations with corresponding growth media supplemented with 1% FBS, and incubated overnight. The next day, tested compounds at a series of concentrations were added into each individual well of the plates, and the plates were incubated for 4 h at 37° C. with 5% CO2.
The EGFR (Y1068) phosphorylation level (activity) of cells in each well were then measured with MSD kit named “MULTI-SPOT®96 4-Spot HB Prototype EGFR Triplex [sequence]: pEGFR(Tyr1068),pEGFR(Tyr1173), Total EGFR” according to the manufacturer’s instruction (MESO SCALE DISCOVERY, Cat# N45ZB-1). The assay is an electrochemiluminescent method for determining both phosphorylated and total EGFR of cells with an MSD SECTOR® Imager and the ratio of p-EGFR/total EGFR can be generated by the machine. The Her2 (Y1248) phosphorylation level (activity) of cells in each well were measured with MSD Kit named “Phospho-ErbB2 (Tyr1248) Assay Whole Cell Lysate Kit” according to the manufacturer’s instruction (MESO SCALE DISCOVERY, Cat# K151CLD-3). The assay is an electrochemiluminescent method (MESO SCALE DISCOVERY) for determining both phosphorylated and total Her2 of cells with an MSD SECTOR® Imager and then the ratio of p-Her2/total Her2 can be generated by the machine.

Ba/F3 EGFR ASV ins cells = assay: Cell proliferation, Ba/F3 EGFR ASV ins (CellTiter-Glo, 72 h); assay type: cell-based; conditions: Ba/F3 EGFR, 72 h, Ba/F3 EGFR ASV ins, 72 h proliferation; read-out: EGFR Exon20 ASV insertion GI50;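 note: IL3-independent Ba/F3 cells transduced with EGFR V769_D770insASV, cellular ATP luminescence after compound exposure, growth relative to DMSO control with the day-0 baseline reading subtracted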
Experimental: (§1) WT or mutant cells were seeded in 384 well plates at appropriate concentrations with corresponding growth media supplemented with 10% FBS, for each experiment, identical plates were prepared in duplicates, and the plates were incubated overnight. On the next day, one of each duplicated plates was dosed with tested compounds at a series of concentrations, and another one of the duplicated plate was analysied for G0 value. The dosed plates were incubate for another 72 h at 37° C. with 5% CO2 and the number of viable cells in each well of the G0 plates or the dosed plates were measured by CellTiter-Glo® Luminescent Cell Viability Assay (Promega). This assay is a luminescent method for determining the number viable cells through measurement of cellular ATP concentration by detection of luciferase activity. Detection reagents (15 µl) was dispensed into per well, and the plates were incubate for 30 min at room temperature. Then, the luminescence in each well was measured using the Envision plate reader (PerkinElmer). The percentage of proliferation was calculated based on the formula: %Proliferation= 100 × (G3 value of sample well-Go value)/(G3 value of DMSO control-Go value).

DB cells = assay: BTK (wt) cell proliferation, DB (CellTiter-Glo, 72 h); assay type: cell-based; conditions: Homo sapiens, DB, DB cells, CellTiter-Glo, read-out: Non-BCR activated DB GI50;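 note: DB cells in 384-well plates given a dilution series of compound, viable cells read by ATP luminescence, growth expressed versus DMSO control after subtracting a time-zero plate reading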
Experimental: (§2) OCI-LY-10 at 3,750 cells/well, TMD-8 and Ri-1 at 2,000 cells/well, and DB at 1,250 cells/well, respectively, were sorted into 384-well plates in RPMI1640 medium with 10% FBS. After overnight incubation, all cells were incubated with compound at a series of concentrations. Meanwhile, a duplicated plate of each cell line was prepared for measuring G0 value. The dosed plates were further incubated for 72 hours and the number of viable cells was measured by CellTiter-Glo® Luminescent Cell Viability Assay (Promega), a luminescent method for determining the number of viable cells through measurement of cellular ATP concentration using Envision plate reader (PerkinElmer). The percentage of proliferation was calculated as: % Proliferation = 100 × (G3 value of sample well - G0 value)/(G3 value of DMSO control - G0 value).

TMD-8 cells = assay: BTK (wt) cell proliferation, TMD-8 (CellTiter-Glo, 72 h); assay type: cell-based; conditions: TMD-8 cells, 72 h, CellTiter-Glo, read-out: BTK WT TMD-8 GI50;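 note: viable cells quantified by ATP-based luminescence, proliferation expressed as percent of DMSO control after subtracting a time-zero baseline plate read at dosing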
[1] = target: T2, human EGFR exon 20 H773_V774insNPH (Homo sapiens, UniProt P00533, INS773NPH); assay: EGFR Exon20 NPH insertion cellular phosphorylation inhibition (MSD pEGFR Y1068/total EGFR); assay type: cell-based; conditions: Ba/F3 EGFR NPH ins cells, 4 h compound, p-EGFR(Y1068)/total EGFR;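 note: IL3-independent Ba/F3 cells with constitutively phosphorylated EGFR, compound exposure at 37 °C under 5% CO2, electrochemiluminescent MSD measurement of the p-EGFR to total EGFR ratio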
T2 construct: host or cells: Ba/F3
T2 sequence (P00533 with tags, fused parts or gaps INS773NPH): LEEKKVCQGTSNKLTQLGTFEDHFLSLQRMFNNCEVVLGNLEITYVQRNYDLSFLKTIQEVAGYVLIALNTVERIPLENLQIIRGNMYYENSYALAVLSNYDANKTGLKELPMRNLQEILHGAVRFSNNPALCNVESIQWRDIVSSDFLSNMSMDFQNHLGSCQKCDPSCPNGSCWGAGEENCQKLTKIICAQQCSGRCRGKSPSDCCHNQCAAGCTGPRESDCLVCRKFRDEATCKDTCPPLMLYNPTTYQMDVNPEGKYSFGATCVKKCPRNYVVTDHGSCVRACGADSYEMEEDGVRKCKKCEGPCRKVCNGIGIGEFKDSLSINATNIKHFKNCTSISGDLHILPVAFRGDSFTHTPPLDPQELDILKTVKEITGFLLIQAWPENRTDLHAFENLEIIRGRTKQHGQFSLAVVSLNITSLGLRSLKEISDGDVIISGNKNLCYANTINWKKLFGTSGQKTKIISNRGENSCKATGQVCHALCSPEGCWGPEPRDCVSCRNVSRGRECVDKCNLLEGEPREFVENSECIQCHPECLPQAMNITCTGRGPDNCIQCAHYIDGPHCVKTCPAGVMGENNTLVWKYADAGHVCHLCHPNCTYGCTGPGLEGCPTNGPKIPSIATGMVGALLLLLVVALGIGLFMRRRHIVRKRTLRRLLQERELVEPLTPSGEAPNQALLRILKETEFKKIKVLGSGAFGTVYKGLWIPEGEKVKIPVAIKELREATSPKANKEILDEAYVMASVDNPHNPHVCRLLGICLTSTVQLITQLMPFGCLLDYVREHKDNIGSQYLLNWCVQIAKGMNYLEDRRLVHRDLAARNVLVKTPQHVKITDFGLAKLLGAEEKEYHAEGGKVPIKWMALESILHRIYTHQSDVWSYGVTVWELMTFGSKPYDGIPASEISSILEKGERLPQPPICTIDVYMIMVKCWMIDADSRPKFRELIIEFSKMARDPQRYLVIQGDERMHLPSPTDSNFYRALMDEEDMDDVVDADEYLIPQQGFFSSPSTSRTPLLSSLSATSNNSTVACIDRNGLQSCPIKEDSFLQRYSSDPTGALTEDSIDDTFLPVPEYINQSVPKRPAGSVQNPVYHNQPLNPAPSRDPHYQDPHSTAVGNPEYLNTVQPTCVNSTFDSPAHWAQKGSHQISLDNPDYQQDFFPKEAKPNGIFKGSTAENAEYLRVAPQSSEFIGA

[2] = target: T3, human EGFR exon 20 V769_D770insASV (Homo sapiens, UniProt P00533, INS769ASV); assay: EGFR Exon20 ASV insertion cellular phosphorylation inhibition (MSD pEGFR Y1068/total EGFR); assay type: cell-based; conditions: Ba/F3 EGFR ASV ins cells, 4 h compound, p-EGFR(Y1068)/total EGFR;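 note: electrochemiluminescent readout on an MSD SECTOR Imager, IL3-independent transduced cells in medium with 1% FBS, compound concentration series at 37 °C and 5% CO2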
T3 construct: expressed in transfected cells; host or cells: Ba/F3 (DSMZ ACC-300), lentiviral transduction, puromycin selection, IL3 depletion

OCI-LY-10 cells = assay: BTK (wt) cell proliferation, OCI-LY-10 (CellTiter-Glo, 72 h); assay type: cell-based; conditions: OCI-LY-10 cells, 72 h, CellTiter-Glo, read-out: BTK WT OCI-LY-10 GI50;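 note: viable cells quantified via cellular ATP luminescence, proliferation given as percent of DMSO control after subtracting a duplicate plate read at time of dosing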
[3] = system: Her2 exon 20 insertion YVMA transduced NIH-3T3 cell line; assay: Cell proliferation, Her2 YVMAins NIH-3T3 (CellTiter-Glo, 72 h); assay type: cell-based; conditions: Mus musculus, NIH3T3, 72 h, Her2 YVMAins cells, 72 h proliferation; read-out: Her2 Exon 20 YVMA insertion GI50;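 note: viable cells quantified by ATP luminescence, growth over a day-zero baseline plate expressed as percent of DMSO control growth, compound dilution series in 10% FBS medium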
[4] = In vitro human hepatocytes clearance assay; conditions: both, human, cryopreserved human hepatocytes (suspension), human hepatocytes Clint (µL/min/10^6cells), mixed gender human hepatocytes, incubation up to 100 min
Ba/F3 EGFR NPH ins cells = assay: Cell proliferation, Ba/F3 EGFR NPH ins (CellTiter-Glo, 72 h); assay type: cell-based; conditions: Ba/F3 EGFR, 72 h, Ba/F3 EGFR NPH ins, 72 h proliferation; read-out: EGFR Exon20 NPH insertion GI50;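 note: IL3-independent cells carrying constitutively phosphorylated EGFR, compound dilution series, viable cells quantified by ATP luminescence, growth relative to DMSO wells after subtracting pre-dosing (day 0) baseline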
Experimental: Similar to recombinant human EGFR exon 20 H769_V770insASV Ba/F3 cell line, the recombinant human EGFR exon 20 H773_V774insNPH Ba/F3 cell line also expresses constitutively phosphorylated EGFR protein and proliferates in the absence of IL3, which could be used for in vitro PD and anti-proliferation assays.
as §1

WT EGFR cell line A-431 = assay: Cell proliferation, WT EGFR A431 (CellTiter-Glo, 72 h); assay type: cell-based; conditions: Homo sapiens, A-431, 72 h, A431, 72 h proliferation; read-out: EGFR WT A431 GI50;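 note: proliferation from a luminescent ATP viability signal, expressed as 100 × (treated minus time-zero plate) over (DMSO control minus time-zero plate), cells grown with 10% FBS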
[5] = system: NCI-H1975 EGFR L858R/T790M cells; assay: Cell proliferation, NCI-H1975 EGFR L858R/T790M (CellTiter-Glo, 72 h); assay type: cell-based; conditions: Homo sapiens, NCI-H1975, 72 h, NCI-H1975, 72 h proliferation; read-out: EGFR L858R and T790M mutation GI50;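 note: viable cells quantified by luciferase-based ATP luminescence, proliferation expressed relative to DMSO-treated wells (100%) after subtracting a parallel plate read at the time of dosing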
Ri-1 cells = assay: BTK (wt) cell proliferation, Ri-1 (CellTiter-Glo, 72 h); assay type: cell-based; conditions: Ri-1 cells, 72 h, CellTiter-Glo, read-out: BTK WT Ri-1 GI50;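 note: viable cells quantified as cellular ATP luminescence, proliferation normalized to a time-zero plate and the DMSO control, compounds tested across a dilution series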
Experimental: as §2

EGFR L858R&T790M = target: T4, EGFR L858R&T790M (Homo sapiens, UniProt P00533, L858R/T790M); assay: EGFR L858R and T790M cellular phosphorylation inhibition in NCI-H1975 (MSD); assay type: cell-based; conditions: NCI-H1975 cells, 4 h compound, p-EGFR(Y1068)/total EGFR; read-out: EGFR L858R and T790M mutation IC50;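 note: phosphorylated and total EGFR detected by electrochemiluminescence, cells exposed to compound in medium containing 1% FBS at 37 °C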
T4 construct: host or cells: NCI-H1975
T4 sequence (P00533 25-1210 T790M/L858R): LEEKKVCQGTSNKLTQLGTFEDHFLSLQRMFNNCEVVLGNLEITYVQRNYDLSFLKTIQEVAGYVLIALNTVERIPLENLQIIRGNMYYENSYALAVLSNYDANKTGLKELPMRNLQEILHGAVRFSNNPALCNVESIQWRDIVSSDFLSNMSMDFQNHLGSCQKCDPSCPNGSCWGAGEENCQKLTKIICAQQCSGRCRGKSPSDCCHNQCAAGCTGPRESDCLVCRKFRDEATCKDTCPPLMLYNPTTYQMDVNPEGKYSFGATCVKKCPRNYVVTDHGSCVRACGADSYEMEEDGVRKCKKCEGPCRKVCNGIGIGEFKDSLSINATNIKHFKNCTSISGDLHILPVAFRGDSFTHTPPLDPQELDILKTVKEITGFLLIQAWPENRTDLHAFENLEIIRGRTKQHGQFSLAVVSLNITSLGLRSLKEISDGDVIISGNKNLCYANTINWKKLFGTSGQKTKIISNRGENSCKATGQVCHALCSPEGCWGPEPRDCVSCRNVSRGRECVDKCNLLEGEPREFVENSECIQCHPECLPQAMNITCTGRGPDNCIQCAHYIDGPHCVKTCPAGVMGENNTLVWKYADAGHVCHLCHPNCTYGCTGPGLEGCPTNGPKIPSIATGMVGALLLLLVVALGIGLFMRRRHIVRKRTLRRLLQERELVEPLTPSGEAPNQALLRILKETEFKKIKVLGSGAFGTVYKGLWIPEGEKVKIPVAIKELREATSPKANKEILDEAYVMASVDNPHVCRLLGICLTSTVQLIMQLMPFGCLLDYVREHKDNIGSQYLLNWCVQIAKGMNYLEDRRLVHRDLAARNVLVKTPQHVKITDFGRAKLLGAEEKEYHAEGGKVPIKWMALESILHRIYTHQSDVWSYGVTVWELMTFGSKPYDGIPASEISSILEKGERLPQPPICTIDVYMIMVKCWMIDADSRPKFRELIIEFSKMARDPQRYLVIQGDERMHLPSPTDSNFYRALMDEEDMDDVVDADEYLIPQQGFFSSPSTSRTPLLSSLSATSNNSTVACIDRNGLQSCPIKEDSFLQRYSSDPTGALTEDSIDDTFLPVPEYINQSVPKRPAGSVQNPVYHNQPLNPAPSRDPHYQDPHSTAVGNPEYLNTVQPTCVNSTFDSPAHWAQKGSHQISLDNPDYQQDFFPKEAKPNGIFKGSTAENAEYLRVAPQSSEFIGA

[6] = In vitro rat hepatocytes clearance assay; conditions: male, rat, cryopreserved rat hepatocytes (suspension), rat hepatocytes Clint (µL/min/10^6cells), 1 µM-range incubation up to 100 min
[7] = target: T5, human Her2 exon 20 insertion mutation YVMA (Homo sapiens, UniProt P04626, INS775YVMA); assay: Her2 Exon 20 YVMA insertion cellular phosphorylation inhibition (MSD p-Her2 Y1248/total Her2); assay type: cell-based; conditions: Her2 YVMAins cells, 4 h compound;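 note: lentivirally transduced NIH-3T3 cells in 1% FBS medium, electrochemiluminescent MSD read-out, graded compound concentrations at 37 °C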
T5 construct: expressed in transfected cells; host or cells: NIH-3T3, lentiviral transduction, puromycin selection
T5 sequence (P04626 with tags, fused parts or gaps INS775YVMA): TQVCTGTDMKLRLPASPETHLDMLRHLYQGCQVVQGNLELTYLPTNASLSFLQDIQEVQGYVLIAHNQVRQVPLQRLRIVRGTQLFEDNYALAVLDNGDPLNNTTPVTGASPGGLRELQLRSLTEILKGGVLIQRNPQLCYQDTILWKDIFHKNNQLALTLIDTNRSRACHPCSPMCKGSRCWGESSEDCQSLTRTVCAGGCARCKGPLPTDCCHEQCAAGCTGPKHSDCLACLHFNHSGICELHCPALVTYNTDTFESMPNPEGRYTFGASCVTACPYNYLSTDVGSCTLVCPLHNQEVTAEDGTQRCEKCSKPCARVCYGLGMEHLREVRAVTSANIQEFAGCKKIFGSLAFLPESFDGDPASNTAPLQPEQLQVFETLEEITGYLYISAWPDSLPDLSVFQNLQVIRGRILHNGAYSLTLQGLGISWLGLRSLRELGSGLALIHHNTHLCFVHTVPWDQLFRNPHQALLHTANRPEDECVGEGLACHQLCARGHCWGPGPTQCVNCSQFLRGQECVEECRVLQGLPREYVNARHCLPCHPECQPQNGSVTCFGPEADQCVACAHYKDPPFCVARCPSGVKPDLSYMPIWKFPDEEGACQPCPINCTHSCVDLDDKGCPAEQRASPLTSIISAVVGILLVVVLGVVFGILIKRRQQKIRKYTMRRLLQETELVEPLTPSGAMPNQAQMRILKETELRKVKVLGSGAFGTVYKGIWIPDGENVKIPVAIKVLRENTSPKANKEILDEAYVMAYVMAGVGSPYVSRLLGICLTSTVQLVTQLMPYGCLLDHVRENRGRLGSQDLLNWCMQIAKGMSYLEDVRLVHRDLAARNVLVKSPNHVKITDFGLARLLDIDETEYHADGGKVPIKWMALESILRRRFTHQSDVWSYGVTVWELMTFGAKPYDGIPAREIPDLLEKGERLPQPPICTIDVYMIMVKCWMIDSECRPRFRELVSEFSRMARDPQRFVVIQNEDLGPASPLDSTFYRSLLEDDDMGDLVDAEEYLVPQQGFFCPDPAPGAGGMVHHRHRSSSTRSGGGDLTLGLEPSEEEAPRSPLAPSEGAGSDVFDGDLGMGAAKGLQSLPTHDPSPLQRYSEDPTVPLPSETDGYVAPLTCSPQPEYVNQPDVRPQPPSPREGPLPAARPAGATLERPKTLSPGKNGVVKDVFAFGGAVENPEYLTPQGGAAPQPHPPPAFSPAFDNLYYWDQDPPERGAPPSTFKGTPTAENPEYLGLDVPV

IC50 (WT EGFR) [µM]	GI50 (Ba/F3 EGFR ASV ins cells) [µM]	IC50 [1] [µM]	IC50 [2] [µM]	hepatocyte CLint at 1 µM [4] [µL/min/1e6 cells]	GI50 (Ba/F3 EGFR NPH ins cells) [µM]	GI50 (WT EGFR cell line A-431) [µM]	GI50 [5] [µM]	IC50 (EGFR L858R&T790M) [µM]	hepatocyte CLint at 1 µM [6] [µL/min/1e6 cells]	IC50 [7] [µM]	GI50 (OCI-LY-10 cells; Homo sapiens, OCI-Ly10, 72 h) [µM]	SMILES	GI50 (DB cells) [µM]	GI50 (TMD-8 cells; Homo sapiens, TMD8, 72 h) [µM]	GI50 (OCI-LY-10 cells) [µM]	GI50 [3] [µM]	GI50 (Ri-1 cells) [µM]	GI50 (TMD-8 cells) [µM]	GI50 (Ri-1 cells; Ri-1, 72 h) [µM]
0.596	0.113	0.0279	0.103	4.01	0.0859	0.0383	0.0054	0.0018	13.9	0.0116		C=CC(=O)Nc1cc(Nc2nccc(Nc3cc(Cl)c(F)cc3C(C)(O)CC)n2)c(OC)cc1N1CC[C@@H](N(C)C)C1 (single isomer, unassigned) [Compound 76, N-(5-(4-(5-chloro-4-fluoro-2-((R)-2-hydroxybutan-2-yl)phenylamino)pyrimidin-2-ylamino)-2-((R)-3-(dimethylamino)pyrrolidin-1-yl)-4-methoxyphenyl) acrylamide or N-(5-(4-(5-chloro-4-fluoro-2-((S)-2-hydroxybutan-2-yl)phenylamino)pyrimidin-2-ylamino)-2-((R)-3-(dimethylamino)pyrrolidin-l-yl)-4-methoxyphenyl) acrylamide]	1.07		0.00293	0.0977	0.00593	0.00844	
0.0076	0.0252	0.0097	0.0069	7.12	0.0216	0.013	0.0077	0.0003	161	0.003	0.0028	C=CC(=O)Nc1cc(Nc2ncnc(Nc3cc(Cl)c(F)cc3C(C)(C)O)n2)c(OC)cc1N(C)CCN(C)C [Compound 11, N-(5-(4-(5-chloro-4-fluoro-2-(2-hydroxypropan-2-yl)phenylamino)-1,3,5-triazin-2-ylamino)-2-((2-(dimethylamino)ethyl)(methyl)amino)-4-methoxyphenyl)acrylamide]	2.79	0.0109		0.0207			0.026
0.0095	0.024	0.0085	0.0081	11.8	0.0229	0.0103	0.0015	0.0005	67.7	0.0033	0.0146	[2H]C([2H])([2H])N(CCN(C)c1cc(OC)c(Nc2ncnc(Nc3cc(F)c(Cl)cc3C(C)(C)O)n2)cc1NC(=O)C=C)C([2H])([2H])[2H] [Compound 37, N-(2-((2-(bis(methyl-d3)amino)ethyl)(methyl)amino)-5-((4-((4-chloro-5-fluoro-2-(2-hydroxypropan-2-yl)phenyl)amino)-1,3,5-triazin-2-yl)amino)-4-methoxyphenyl) acrylamide]	2.98	0.01		0.0223			0.0346
0.0126	0.0354	0.0286	0.0161	4.02	0.0529	0.0134	0.0019	0.001	5.97	0.0199	0.00673	C=CC(=O)Nc1cc(Nc2ncnc(Nc3cc(F)c(Cl)cc3C(C)(C)O)n2)c(OC)cc1N1CC[C@@H](N(C)C)C1 [Compound 51, (R)-N-(5-(4-(4-chloro-5-fluoro-2-(2-hydroxypropan-2-yl)phenylamino)-1,3,5-triazin-2-ylamino)-2-(3-(dimethylamino)pyrrolidin-1-yl)-4-methoxyphenyl)acrylamide]	> 3	0.00362		0.105			0.0103
0.018	0.0256	0.0142	0.0123	2.71	0.0188	0.0124	0.0021	0.0004	7.9	0.009	0.00272	C=CC(=O)Nc1cc(Nc2ncnc(Nc3cc(Cl)c(Cl)cc3C(C)(C)O)n2)c(OC)cc1N1CC[C@@H](N(C)C)C1 [Compound 61, (R)-N-(5-(4-(4,5-dichloro-2-(2-hydroxypropan-2-yl)phenylamino)-1,3,5-triazin-2-ylamino)-2-(3-(dimethylamino)pyrrolidin-1-yl)-4-methoxyphenyl)acry lamide]	1.51	0.00103		0.0878			0.00562
0.136	0.0461	0.0315	0.027	3.89	0.033	0.0208	0.0028	0.0017	17.5	0.0153	0.0114	C=CC(=O)Nc1cc(Nc2nccc(Nc3cc(Cl)c(Cl)cc3C(C)(C)O)n2)c(OC)cc1N1CC[C@@H](N(C)C)C1 [Compound 68, (R)-N-(5-(4-(4,5-dichloro-2-(2-hydroxypropan-2-yl)phenylamino)pyrimidin-2-ylamino)-2-(3-(dimethylamino)pyrrolidin-1-yl)-4-methoxyphenyl)acrylamide]	2.51	0.0036		0.0967			0.0136
0.0278	0.0274	0.0226	0.0086	1.1	0.0432	0.008	0.0033	0.0007	6.15	0.0122	0.0163	C=CC(=O)Nc1cc(Nc2ncnc(Nc3cc(Cl)c(F)cc3C(C)(C)O)n2)c(OC)cc1N1CC[C@@H](NC)C1 [Compound 73, (R)-N-(5-(4-(5-chloro-4-fluoro-2-(2-hydroxypropan-2-yl)phenylamino)-1,3,5-triazin-2-ylamino)-4-methoxy-2-(3-(methylamino)pyrrolidin-1-yl)phenyl) acrylamide]	> 3	0.00375		0.026			0.151

SMILES	IC50 (WT EGFR) [µM]	GI50 (Ba/F3 EGFR ASV ins cells) [µM]	IC50 [1] [µM]	IC50 [2] [µM]	hepatocyte CLint at 1 µM [4] [µL/min/1e6 cells]	GI50 (Ba/F3 EGFR NPH ins cells) [µM]	GI50 (WT EGFR cell line A-431) [µM]	GI50 [5] [µM]	IC50 (EGFR L858R&T790M) [µM]	hepatocyte CLint at 1 µM [6] [µL/min/1e6 cells]	IC50 [7] [µM]	GI50 (OCI-LY-10 cells; Homo sapiens, OCI-Ly10, 72 h) [µM]	GI50 (DB cells) [µM]	GI50 (TMD-8 cells; Homo sapiens, TMD8, 72 h) [µM]	GI50 (OCI-LY-10 cells) [µM]	GI50 [3] [µM]	GI50 (Ri-1 cells) [µM]	GI50 (TMD-8 cells) [µM]	GI50 (Ri-1 cells; Ri-1, 72 h) [µM]
C=CC(=O)Nc1cc(Nc2ncnc(Nc3cc(Cl)c(F)cc3C(C)(O)CC)n2)c(OC)cc1N1CC[C@@H](N(C)C)C1 (single isomer, unassigned) [Compound 69, N-(5-(4-(5-chloro-4-fluoro-2-((R)-2-hydroxybutan-2-yl)phenylamino)-1,3,5-triazin-2-ylamino)-2-((R)-3-(dimethylamino)pyrrolidin-1-yl)-4-methoxyphenyl)acrylamide or N-(5-(4-(5-chloro-4-fluoro-2-((S)-2-hydroxybutan-2-yl)phenylamino)-1,3,5-triazin-2-ylamino)-2-((R)-3-(dimethylamino)pyrrolidin-1-yl)-4-methoxyphenyl)acrylamide]	0.0562	0.0701	0.0463	0.0202	4.12	0.0581	0.0122	0.0055	0.0012	10.7	0.0331		> 3	0.0101	0.0745	0.0891	0.0139		
